The data set in a line: in vitro. Particulars: human, hela cells, % viability.

The term viability denotes a read-out of living cells in per cent, often relative to untreated cells. For the compound `CCNc1cncc(-c2ccccc2)n1` [CBK065847], the viability at 28.5 h, 10 µM was 85.5%.
Still for that read-out and setting: the result for `O=C(CCSc1ccccc1)Nc1ccccc1C(=O)N1CCCCC1` [CBK269545] reads 87.3%.
Consider `COC(=O)C1CCN(Cc2nc3sc4c(c3c(=O)[nH]2)CCC(C)C4)CC1` (stereo not shown) [CBK304978], for which the viability at 28.5 h, 10 µM stood at 99.2%.
Regarding `Cc1cccnc1CN(C)C(=O)c1cccc(NC(=O)C2CCCC2)c1` [CBK306913], the viability at 28.5 h, 10 µM worked out at 82.9%.
Same read-out and setting: the result for `O=C1N=C(NC2CC3CCC2C3)SC12CCC2` (stereo not shown) [CBK073933] reads 96.2%.
Still for that read-out and setting: the result for `CCCNC(=O)c1nn2c(c1Cl)NC(c1cccs1)CC2C(F)(F)F` (stereo not shown) [CBK307177] reads 90.3%.
On the same count and under the same terms, the result for `COC1CCCN(Cc2cncn2C2CCCCC2)C1` (stereo not shown) [CBK306542] reads 101%.
For the compound `COc1ccc(-c2ccc(C(=O)N(C)C)c(N(C)C(C)=O)n2)cc1` [CBK076500], the viability at 28.5 h, 10 µM was 99.1%.
For `O=C(Cn1ccc([N+](=O)[O-])n1)NCc1ccco1` [CBK268999], the viability at 28.5 h, 10 µM stood at 89.6%.
The same measure, in the same setting: the result for `O=C(O)C1CCC1C(=O)N1CCN(c2nc3ccc(Cl)cc3s2)CC1` (stereo not shown) [CBK057108] reads 92.4%; that for `COc1ccccc1-c1nnc(SC)n1-c1ccc(C)cc1` [CBK076670], 93.2%.
On the same count and under the same terms, the result for `Cc1cc(C)nc(N2CCC(CC(=O)N3CCN(C4CCCC4)CC3)CC2)n1` [CBK285957] reads 97.6%; that for `NC1=C(c2ccccc2)C(=O)CN1NC(=O)COc1ccccc1-c1ccccc1` [CBK269258], 95.1%; that for `NC1CCN(c2ncccn2)CC1` [CBK174054], 98.7%.
Same read-out and setting: the result for `CC(=O)NC[C@@H]1C=C(C)[C@H](Cc2nnc(-c3cncn3C)o2)C[C@H]1C(C)C` [CBK289225] reads 107%; that for `CCCCOc1ccc(-c2nnn(CC(=O)Nc3ccccc3)n2)cc1` [CBK070609], 90.2%; that for `FC(F)(F)c1ccc(N2CCNCC2)nc1OCCOc1ccc2ccccc2c1` [CBK200002A], 92.1%.
Regarding `Nc1nc(-c2ccc(F)cc2)c2c(n1)-c1ccccc1C2=O` [CBK287881], the viability at 28.5 h, 10 µM was found to be 114%.
As for `C#CCNCCCOc1ccccc1Oc1ccccc1` [CBK017707C], the viability at 28.5 h, 10 µM worked out at 94.2%.
As to `Cc1c(Cl)c([N+](=O)[O-])nn1CC(=O)N1CCN(Cc2ccccc2)CC1` [CBK261720], the viability at 28.5 h, 10 µM turned out to be 89.8%.
On the same count and under the same terms, the result for `CCOC(=O)N1CCN(c2cccc3[nH]c(C(=O)O)cc23)CC1` [CBK083477] reads 93.9%; that for `CCNC(=S)NC(=Nc1nc(C)cc(C)n1)NCc1cccnc1` [CBK267212], 97.2%.
Same read-out and setting: the result for `CCN(Cc1ccncc1)C(=O)NC(C)c1ccccc1` (stereo not shown) [CBK155156] reads 101%; that for `Cc1cc(Cl)c(S(=O)(=O)N2CCN(c3ccccn3)CC2)cc1OCC(=O)NC1CCCCC1` [CBK266798], 90.7%.
Still for that read-out and setting: the result for `Cc1ccc(-c2nc3ccccc3s2)cc1NC(=O)c1sc2ccccc2c1Cl` [CBK263865] reads 93.9%; that for `CCCc1ccc(S(=O)(=O)N(c2ccccc2)C2CCNCC2)cc1` [CBK165121T], 108%; that for `O=S(=O)(NCCCN1CCOCC1)c1cc(C(F)(F)F)cc(C(F)(F)F)c1` [CBK005796], 91%.
Turning to `CC(C)S(=O)(=O)n1c(=O)n(Cc2ccc(S(C)(=O)=O)cc2)c2ccccc21` [CBK106529], the viability at 28.5 h, 10 µM came out at 90.3%.
With `CCCc1cc(C(=O)N2CCN(C)C3(CCNC(=O)CC3)C2)ccn1` (stereo not shown) [CBK306815], the viability at 28.5 h, 10 µM was determined as 96.2%.
On the same count and under the same terms, the result for `CC1(C)CC(N2CN(C3CC(C)(C)NC(C)(C)C3)CN(C3CC(C)(C)NC(C)(C)C3)C2)CC(C)(C)N1` [CBK261985] reads 90.8%; that for `COc1cc(NC(=O)c2cc([N+](=O)[O-])ccc2N2CCOCC2)ccc1-c1cc2ccccc2oc1=O` [CBK269128], 84.9%.
For the compound `O=C(Cn1ncc2cccn2c1=O)c1ccc(F)cc1` [CBK283627], the viability at 28.5 h, 10 µM was 82.7%.
On the same count and under the same terms, the result for `Cc1ccnn1CCNC(=O)C(C)Cc1cccs1` (stereo not shown) [CBK281633] reads 109%; that for `N#C/C(=C\c1ccc(Oc2ccc(C(F)(F)F)cc2[N+](=O)[O-])cc1)c1nc2ccccc2[nH]1` [CBK263878], 92.4%; that for `O=C(O)Cn1nnc(-c2ccc(OCc3ccccc3)cc2)n1` [CBK269755], 85.1%.
On the same count and under the same terms, the result for `CC(C)(C)OC(=O)NCCNCc1cc(F)cc(F)c1` [CBK056698] reads 90.3%; that for `CC(C)[C@H](CO)n1c(=O)[nH]c2ncc(-c3ccc(OC(F)(F)F)cc3)nc21` [CBK065037], 105%; that for `O=S(=O)(O)c1cc(O)c2c(S(=O)(=O)O)cc(S(=O)(=O)O)cc2c1` [CBK278164N], 94.9%.
The same measure, in the same setting: the result for `Cc1nc(-c2ccccc2)sc1CNC(=O)CCC(F)(F)F` [CBK092365] reads 102%.
For the compound `Clc1ccccc1-c1nsc(Nc2ccccc2)n1` [CBK016152], the viability at 28.5 h, 10 µM was found to be 96.2%.
Same read-out and setting: the result for `Cc1cccc(CN(CC(C)(C)CN)C(=O)Nc2ccccc2C(F)(F)F)n1` [CBK002409C] reads 105%.
Still for that read-out and setting: the result for `Cc1cc(C)n2ncc(C(=O)N3CCCCC3c3ccccn3)c2n1` (stereo not shown) [CBK307257] reads 90.4%; that for `Cc1cccc(NC(=O)C(CC(=O)O)NCc2ccccc2)c1` (stereo not shown) [CBK266821], 87.3%.
Still for that read-out and setting: the result for `Cc1nc(CC(=O)O)c(-c2ccccc2)s1` [CBK264988] reads 110%; that for `Cc1cc(CN(C)Cc2cnn(-c3ccc(Cl)cc3)c2)n[nH]1` [CBK281912], 99.3%; that for `CC(=O)N1CCC(C(=O)NC(=O)NCc2ccc3c(c2)CCO3)CC1` [CBK034837], 93.8%.
For `O=C(Nc1ccccc1-c1ccccc1)c1cc(-c2ccncc2)nc2ccc(Cl)cc12` [CBK267759], the viability at 28.5 h, 10 µM came out at 95%.
The same measure, in the same setting: the result for `c1coc(CCC2NCCn3cccc32)c1` (stereo not shown) [CBK023964F] reads 95.2%.
On the same count and under the same terms, the result for `CCOC(=O)c1c(N)sc2c1CC(c1ccccc1)SC2c1ccccc1` (stereo not shown) [CBK293955] reads 87.5%; that for `Cc1ccc2c(c1)nc(-c1ccc(O)cc1)n2Cc1ccc(O)cc1` [CBK291226], 77.4%; that for `CN(C)CCN(C)Cc1ccc2ccc3cccc4ccc1c2c34` [CBK261860], 103%.
Still for that read-out and setting: the result for `CC(C)(C)OC(=O)N1CCC(C(Cc2ccc(-c3ccc(S(C)(=O)=O)cc3)cc2)C(=O)NCCOCCO)CC1` (stereo not shown) [CBK173128] reads 83.7%; that for `O=c1[nH]c2ncc(-c3cccc(CO)c3)nc2n1CC1CC1` [CBK065088], 63.9%.
Take `CC(NC(=O)C1CCN(Cc2ccc(Oc3ccccc3)cc2)CC1)c1ccccc1` (stereo not shown) [CBK148618]: the viability at 28.5 h, 10 µM came to 107%.
For the compound `O=C(O)c1cccc(NS(=O)(=O)c2ccc(-c3cc(C(F)(F)F)on3)s2)c1` [CBK155722], the viability at 28.5 h, 10 µM stood at 98%.
The same measure, in the same setting: the result for `CC1(C)NC(C)(C)C(=N\O)/C(=N\O)C/1=N\O` [CBK261512] reads 110%; that for `O=C(NC(c1ccc(F)cc1)c1ccccn1)C1CCN(C(=O)c2ccno2)CC1` (stereo not shown) [CBK059705], 99.9%.
Still for that read-out and setting: the result for `CCC(=O)N1CCC(c2nc(C3CCCC3)no2)C1` (stereo not shown) [CBK285458] reads 95.3%.
Take `c1ccc(-c2cccc3c2OC2(CCNCC2)OC3)cc1` [CBK061589]: the viability at 28.5 h, 10 µM (bulk resorufin, single well) is 105%.
Take `Cc1cc(NC(=O)c2cccc(N3C(=O)CCC3=O)c2)no1` [CBK287352]: the viability at 28.5 h, 10 µM is 112%.
The same measure, in the same setting: the result for `CC1(C)Cc2c(ccc3ccccc23)C(CCN2CCCCC2)=N1` [CBK261746] reads 116%; that for `O=C(Nc1nnc(C(F)(F)F)s1)c1ccc(F)c(Cl)c1` [CBK076831], 92.2%; that for `Cc1cc(CC(=O)N2CCC(Cn3cncn3)(C3CCCCC3)CC2)on1` [CBK136795], 88.8%.
For `O=C(O)c1ccccc1C(=O)N1CCC2(CC1)OCc1cc(-c3ccco3)ccc1O2` [CBK060824], the viability at 28.5 h, 10 µM (bulk resorufin, single well) was found to be 93.6%.
Consider `Cc1nc2c(OCC(=O)C(C)(C)C)cccn2c1N(C)C(=O)C1CCCCC1` [CBK147145], for which the viability at 28.5 h, 10 µM was found to be 92.4%.
On the same count and under the same terms, the result for `CC(C)Cn1cnc(S(=O)(=O)N2CCC(Cc3ccccc3)CC2)c1` [CBK306273] reads 92.3%; that for `Cc1ccc(C2=NN(C(=O)CCC(=O)O)C(c3ccc4nccnc4c3)C2)cc1` (stereo not shown) [CBK287802], 109%.
On the same count and under the same terms, the result for `CCSc1c(C)cnc2c1c(=O)n(C)c(=O)n2C` [CBK287748] reads 99.8%.
On the same count and under the same terms, the result for `Cc1cccc2c3c([nH]c12)C1(CCCN(Cc2ccc(F)cc2Cl)C1)NCC3` (stereo not shown) [CBK039339] reads 90%; that for `c1csc(-c2csc3ncnc(NCCCN4CCOCC4)c23)c1` [CBK267166], 98.1%.
As for `C/C(=N\NC(=O)c1nonc1N)c1ccc(Cl)cc1` [CBK025664], the viability at 28.5 h, 10 µM turned out to be 107%.
The same measure, in the same setting: the result for `Cc1nc2c(c(=O)[nH]1)CCN(Cc1c(C)oc3ccccc13)C2` [CBK283994] reads 87.8%; that for `O=C(CSCc1ccccc1Cl)Nc1ccc(-c2nnc(-c3ccccc3)o2)cc1` [CBK268656], 111%; that for `CCc1c(C)nn(-c2ccccc2Cl)c1-c1ccccc1` [CBK016736], 106%.
On to `Cc1nnc2c(=O)n(CC(=O)N3CCN(C(C)C)CC3)c3cccnc3n12` [CBK288601], for which the viability at 28.5 h, 10 µM amounted to 94.3%.
On the same count and under the same terms, the result for `O=C(NCCN1CCCCC1)C1CC(=O)N(Cc2ccco2)C1` (stereo not shown) [CBK304877] reads 89.8%.
Still for that read-out and setting: the result for `O=C(CNS(=O)(=O)c1ccc(Br)cc1)N1CCN(Cc2ccc3c(c2)OCO3)CC1` [CBK074358] reads 98.1%.
Still for that read-out and setting: the result for `C(=N\N1CCOCC1)/c1ccc2c(c1)OCO2` [CBK026446] reads 108%; that for `CN(C)c1nc2c(ncn2C2OC(CO)C(O)C2O)c(=O)[nH]1` (stereo not shown) [CBK201295], 96.3%.

The values are drawn from paper PMC12040169 (PLOS Biology, 2025).
